Here are results for three compounds from patent US20250213593A1, “Use of Derivatives based on Sarsasapogenin Structure and Pharmaceutical Compositions thereof” (BEIJING PHYTOVENT PHARMACEUTICAL TECHNOLOGY CO., LTD., priority 2022, published 2025).

Molecules are shown by their SMILES. Like-named read-outs stand apart in the source and are kept apart here.

Experiment [1] has as its system transgenic AD mice (C57BL/6J background). The experiment is described as follows: Light/dark box test of AD mice. It counts as in vivo, mouse. The following applies: 6 months after administration. The source says: The principle of the light/dark box test is: the mice have a natural tendency to darkness; and after the mice was put into a light box, the mice would spontaneously enter a connected dark box. However, in this experiment, the dark box was equipped with an electrical stimulation mechanism, and the mice would be shocked when they entered the dark box.

Experiment [2] has the same test system. The experiment is described as follows: Water maze test of AD mice. The following applies: 6 months after administration.
Text: • Experimental and analytical method: in this experiment, transgenic mice from APP/P Embodiment 13B were used, and background mice were C57BL/6J. […] The process of the water maze test was divided into three stages: the first stage lasted for 1 day; and in order to adapt to this stage, there was an escape platform having a diameter of 8 cm in a large pool having a diameter of 1.2 m, and there were four marks of circle, triangle, box and fork in four directions of east, west, north and south on the pool wall as hints of spatial positions. The rats were sequentially placed into transparent water along the pool wall, with the water surface 1 cm below the escape platform. The mice would easily find the escape platform, and was then rescued from the water maze after climbing onto the platform, thereby learning basic rules of the water maze. The second stage lasted for 4 days and was a training stage. The settings for the tool remained unchanged, the water surface was raised to 1 cm above the escape platform, and ink was poured to strain the water black, so that the escape platform was not visible. Every day, the mice were put into the pool from the four directions of the east, south, west and north, and rescued after successfully climbing onto the escape platform. […]
Experiment [3] shares this test system. Description: Nesting behaviors of AD mice. The class given is in vivo, mouse. The note with it: administered from 2 months of age; tested 3 and 6 months after administration. An excerpt: One symptom of AD patients was the inability to take care of themselves, while nesting behaviors reflected the self-care level of the mice. At the beginning of the experiment, 10 pieces of rectangular paper were placed neatly in mouse cages in order. Normal mice would tear up pieces of paper and build nests, while mice with severe AD symptoms would not tear up pieces of paper and build nests.

For experiment [4], the system named is HT cells (human mixed lymphoma cells). The experiment is described as follows: Cell proliferation assay, HT. The note with it: Homo sapiens, HT, 72 h. The class given is cell-based. Here is the method: (§1) • Experimental and analytical method: cells were inoculated into a 96-well cell culture plate with a lid at a maximum concentration of 10 μM for a test compound, and diluted in three folds to a series of test concentrations, and cells were incubated at 37° C., 5% CO2 for 72 h. The concentration of DMSO was 0.5%, 100 μl of medium was taken from each well. 100 μl of reagent (Celltitute Glo Assay Kit) was added to each well, and a flat plate was shaken on a plate shaker (protected from light) for 2 min. A culture plate was incubated (protected from light) at room temperature for 30 min. Chemiluminescence values were recorded by a multi-plate plate reader, and the experimental results were as follows:
(§2) U937 (histiocytic lymphoma cells), OCI-LY3 (human diffuse large B-cell lymphoma cells), U2932 (human diffuse large B-cell lymphoma cells), and HT cells (human mixed lymphoma cells) were analyzed in the table for experimental analysis of cell proliferation.

The subject of experiment [5] is U937 (histiocytic lymphoma cells). Description: Cell proliferation assay, U937. The class given is cell-based. The note with it: Homo sapiens, U-937, 72 h. Here is the method:
as §1, §2

Experiment [6] has as its system U2932 (human diffuse large B-cell lymphoma cells). Description: Cell proliferation assay, U2932. It counts as cell-based. The following applies: U2932, 72 h. The protocol: as §1, §2
Experiment [7] has as its system OCI-LY3 (human diffuse large B-cell lymphoma cells). Description: Cell proliferation assay, OCI-LY3. The class given is cell-based. The note with it: Homo sapiens, OCI-Ly3, 72 h. The protocol: as §1, §2
For experiment [8], the system named is Lepr gene mutant (DB) mice. Description: Excessive urination in DB animals. It counts as in vivo, mouse. The following applies: 80 mpk by gavage once every two days, 5 weeks; vs model group. An excerpt: • Experimental and analytical method: leptin receptor gene (OB-R) was also known as diabetes gene (db), leptin receptor (Lepr) is closely related to obesity, hypertension, diabetes, lipid metabolism disorders, etc. The courses of these diseases are greatly influenced by the genetic background. Topical insulin can not control the increase in blood glucose and gluconeogenesis levels in the liver. Gene editing technologies and embryo injection technologies were used to construct Lepr gene mutant mice. […] The urine volume of each mouse of this strain was as huge as hundreds of times that of normal mice, so patients with frequent urination could be simulated. The experiment was divided into three groups, i.e., a model group (non-administrated, onset mice with high urine volume), a control group (non-administrated, non-onset normal mice), and an experimental group (administrated Embodiment 1A, 80 mpk, by gavage once every two days), with 2 mice in the control group, and 3 mice in the other two groups. The small molecule used was Embodiment 1A. We observed the urine volume in cages of mice housed in single cages starting from Week 8 and after 5 weeks of continuous drug treatment. […] Experiment 32. Cardiovascular Inflammation Alleviation Effect on APOE Mutant Mice Fed with High-Fat Diets.

For another experiment, the system named is hippocampal neurons. The experiment is described as follows: L-cysteine-induced neuronal excitotoxicity. The class given is cell-based, SD rats. The following applies: compound 1 μM, 24 h before inducer. Here is the method: Experimental and analytical method: before the experiment, a 24-well cell culture plate was pretreated with Poly-D-lysine and placed in a cell incubator at 37° C. and 5% CO2 overnight. SD rats, 18 days pregnant, were ordered, brains of fetal rats (E18-19) were dissected, and hippocampal neurons in the brains were subjected to primary culture in a neuronal medium using a 24-well plate, and then cultured by a serum-free medium. The hippocampal neurons were cultured in a cell incubator at 37° C., 5% CO2 for 19 days (DIV19), then added with a compound to be tested (a final concentration of 1 μM) and a positive control AP5 [(2R)-amino-5-phosphonopentanoic acid(phosphonatopentanoate)] (a final concentration of 100 μM), cultured for 24 h, and then added with L-Cystine (400 μM) and NaHCO3 (10 mM). After 18 h, Hoechst3342 (2.5 μg/ml) was added for cell staining. The cells were placed in the incubator and cultured for 15 min, and photographed using the high-content fluorescence microscope, wherein 6 random non-overlapping fields were photographed for each duplicate well, and the total number of neurons and the number of dead neurons were counted with software Image J. The obtained data was used to determine whether there was a difference between a drug treatment group and a control group.
Compound treatment: 32 small molecule compounds in Embodiment 1 to Embodiment 19A were diluted with DMSO to a 1 mM mother solution; and 1 μL of mother solution was added to 1 ml of culture solution per well in a 24-well plate to a final concentration of 1 μM, wherein a positive control compound was […] of AP5 (100 mM mother solution), and a negative control was 1 μl of DMSO.

The next experiment relates to Mia paca-2 cells. Description: In-vitro killing of pancreatic cancer cells (CellTiter-Glo). The class given is cell-based. The note with it: 11 small molecules, max 10 uM, 3-fold dilution. Here is the method:
• Experimental and analytical method: we used Mia paca-2 cells as a research object. This cell line was a pancreatic cancer cell line and was widely used in an antimicrobial susceptibility experiment. We performed the antimicrobial susceptibility experiment on 11 small molecules, with a maximum concentration of 10 uM and a 3-fold dilution, resulting in a concentration gradient of seven points. Cell viability assay was performed using CellTiter-Glo, and a dosage-response curve was plotted using GraphPad Prism. A resulting antimicrobial susceptibility curve was shown in the figure below. • Results: the antimicrobial susceptibility curve was shown in FIG. 53, where a lower IC50 value indicates a higher sensitivity to the small molecule.

On to `CCN1CCN(C2CCN(C(=O)CC(=O)NC3CC[C@]4(C)C5CC[C@]6(C)[C@@H]7[C@H](C[C@H]6[C@@H]5CC[C@@H]4C3)O[C@]3(CC[C@H](C)CO3)[C@H]7C)CC2)CC1` (stereo partly drawn) [Embodiment 25], for which the “memory on electric shock (latency before entering the dark box)” value in experiment [1] is reported as “could effectively enhance the memory”. Moreover, in experiment [2], the “dwell time in a target quadrant” value is “most obvious” and the “number of platform shuttles” value is given as “most obvious”. In addition, the nesting behavior score entry in [3] is reported as “most obvious”.

What is called IC50 is the concentration that inhibits the measured activity by half. As to `C[C@H]1CC[C@@]2(OC1)O[C@H]1C[C@H]3[C@@H]4CC[C@@H]5C[C@@H](NC(=O)CCN6CCN(C)CC6)CC[C@]5(C)[C@H]4CC[C@]3(C)[C@H]1[C@@H]2C` [Embodiment 1A], the IC50 was determined as 1.65 µM in [4]; 1.8 µM in [5] (low sugar, read-out: U937 (IC50, uM) Low sugar); 2.13 µM in experiment [5] (normal sugar, read-out: U937 (IC50, uM) Normal sugar); 0.62 µM in [6]; 1.9 µM in [7]. For the same compound, in experiment [8], the “urine wetting area in mouse cage” value is on record as “significantly reduced”. The “protective effects on L-Cystine (400 μM)-induced neuronal excitotoxicity” value in the experiment with hippocampal neurons is recorded as “protective effects”.

For `C[C@H]1CC[C@@]2(OC1)O[C@H]1C[C@H]3[C@@H]4CC[C@@H]5C[C@@H](NC(=O)CC(=O)N6CCN(C7CCN(C)CC7)CC6)CC[C@]5(C)C4CC[C@]3(C)[C@H]1[C@@H]2C` (stereo partly drawn) [Embodiment 26A], the “sensitivity of Mia paca-2 cells (IC50 comparison)” value in the experiment with Mia paca-2 cells is “highest sensitivity”.
